Tests used:
HeLa cells = experiment: Competition assay of cellular uptake against natural chol; type: cell-based, Human; conditions: probe fixed at 5 µM, chol 0-1 mM, 1 h co-incubation; result stated at 500 µM chol
Description: A competition assay was designed to test chol-N3 and fluorescently pre-labeled chol-N3 uptake by cells. HeLa cells were seeded onto coverslips in DMEM supplemented with 10% FBS, and co-incubated with a fixed concentration of chol-N3 (5 µM) or with chol-N3 (5 µM) labeled with 10 µM AF 488-DBCO and an increasing concentration of natural chol (ranging from 0 to 1 mM) added externally to the cells. After 1h co-incubation of cells with the mixture, cells were stained in vivo with 25 µM AF 488-DBCO for 60 min, counterstained with DAPI, fixed, and imaged using a ZEISS apotome. Alternaltively, HeLa cells were treated with 5 µM Bodipy-chol in DMEM supplemented with 10% FBS and co-incubated with increasing concentration of natural chol (0-1mM) for 1h. Cells were fixed, and counterstained with DAPI.
Human cervix adenocarcinoma HeLa cells and human bone marrow neuroblast SH-SY5Y cells were obtained from ATCC. HeLa cells were maintained in DMEM (Dulbecco's modified Eagle's medium) supplemented with 10% FBS, 2 mM Glutamax, 100 units/ml penicillin, and 100 µg/ml streptomycin (Life Technologies) at 37 °C with 5% CO2. SH-SY5Y cells were maintained in DMEM/F12 (F12 and Dulbecco's modified Eagle's medium) supplemented with 10% FBS and 1% penicillin and streptomycin. (Life Technologies) at 37°C with 5% CO2.

[1] = In vitro laurdan generalized polarization (GP) in LUVs; type: physicochemical; conditions: POPC LUVs with 10% sterol (labeled adduct 90%:8%:2%), compared with chol
Description: Large unilamellar vesicles (LUV) composed of POPC:chol (90%:10%), POPC:chol-N3 (90%:10%) or POPC/chol-N3/chol-N3-AF 647-DBCO (90%:8%:2%) were prepared following the extrusion method described by Cebecauer M. et al. (Membrane Lipid Nanodomains. Chem Rev, 2018). Laurdan was added in the organic phase before solvent evaporation. Laurdan labeled liposomes at a concentration of 30 µM were kept under continuous stirring, and the determination of GP profiles at different temperatures was performed. All fluorescence measurements were made using an SLM Aminco series 2 (Spectronic Instruments, Rochester, NY) spectrofluorimeter as previously described (Sheng R. et al. Nat Commun 3, 1249, 2012). To quantify changes in the Laurdan emission spectrum, generalized polarization (GP) values were calculated as follow: GP = (IB-IR)/(IB+IR), where IB (at 440 nm) and IR (at 490 nm) correspond to the intensities at the blue and red edges of the emission maxima, respectively (Bernardino de la Serna J et al., J Biol Chem 279, 40715-40722, 2004 and Sezgin E et al., Nat Rev Mol Cell Biol 18, 361-374, 2017).

## CC(CCCN=[N+]=[N-])C1CCC2C3CC=C4CC(O)CCC4(C)C3CCC12C (centres unmarked) [chol-N3, 17-(5-azidopentan-2-yl)-10,13-dimethyl-2,3,4,7,8,9,10,11,12,13,14,15,16,17-tetradecahydro-1H-cyclopenta[a]phenanthren-3-ol]
HeLa cells
  uptake in the presence of increasing extracellular chol: virtually abolished
[1]
  membrane order (laurdan generalized polarization, GP) versus temperature: same membrane order behavior irrespective of the chol analog used

— patent EP3964511A1, “BIOORTHOGONAL CHOLESTEROL PROBE AND USES THEREOF” (Universidad del País Vasco/Euskal Herriko Unibertsitatea, priority 2020, dated 2022)
